Experimental findings from US9834571B2, “Compounds for inhibiting cell proliferation in EGFR-driven cancers” (ARIAD Pharmaceuticals, Inc., priority 2012, dated 2017) are described below.

Each structure is given as a SMILES string. pIC50: −log10 of the molar value. Where two headings read alike, the source gives them in different places.

The subject of assay [1] is BaF3 cells expressing wildtype EGFR. The experiment in a line: Antiproliferative activity (MTT) against control BaF3 cells expressing wildtype EGFR. The assay is classed as cell-based. The note with it: Mus musculus. In a few lines:
(§1)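 MTT read-out; BaF3 lines carrying EGFR mutations vs wildtype-EGFR BaF3 control.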

The target in assay [2] is T1, BaF3 cells expressing the target EGFR mutations (Homo sapiens, UniProt P00533, T790M, cells depend on it, form not given).
T1 construct: IC50, BAF3 EGFR DEL T790M PURO POOL; other: BAF3 EGFR DEL T790M PURO POOL cells, MTT; other: BAF3 EGFR DEL T790M PURO POOL cells; MTT
The experiment in a line: Antiproliferative activity (MTT) against BaF3 cells expressing the target EGFR mutations. It counts as cell-based. The note with it: BAF3 EGFR DEL T790M PURO POOL cells, read-out: IC50, BAF3 EGFR DEL T790M PURO POOL. An outline of the steps: as §1

Assay [3] deals with T2, BaF3 cells expressing the target EGFR mutations (Homo sapiens, UniProt P00533, T790M/L858R, cells depend on it).
T2 construct: IC50, BAF3 EGFR L858R-T790M PURO POOL; other: BAF3 EGFR L858R-T790M PURO POOL cells, MTT; IC50, BAF3 EGFR L858R-T790M PURO POOL; other: BAF3 EGFR L858R-T790M PURO POOL cells; MTT
The description is as above. The assay is classed as cell-based. The note with it: BAF3 EGFR L858R-T790M PURO POOL cells, read-out: IC50, BAF3 EGFR L858R-T790M PURO POOL. In a few lines: as §1

Assay [4] deals with EGFR L858R/T790M (Homo sapiens, UniProt P00533, L858R/T790M). The experiment in a line: Kinase inhibitory activity against EGFR bearing the L858R/T790M double mutation. The note with it: 10 μM ATP, read-out: IC50 for kinase inhibition, EGFR L858R T790M. It counts as biochemical. An outline of the steps: (§2)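 Testing covers a ten-concentration range beginning at 3 μM, performed once per concentration at an ATP level of 10 μM.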

The target in assay [5] is human EGFR (native sequence) (Homo sapiens, UniProt P00533). Nature of the assay: Kinase inhibitory activity against human EGFR (native sequence). The assay is classed as biochemical. The settings on record: 10 μM ATP, read-out: IC50 for kinase inhibition, EGFR. An outline of the steps: as §2
Assay [6] addresses EGFR L858R (Homo sapiens, UniProt P00533, L858R). Nature of the assay: Kinase inhibitory activity against EGFR bearing the L858R mutation. It counts as biochemical. The note with it: 10 μM ATP, read-out: IC50 for kinase inhibition, EGFR L858R. In a few lines: as §2
The mark [7] stands for this setting: EGFR L858R/T790M double mutation.
Where [8] appears, read: 10 pt curves, 3 μM top concentration.

Sequence of human EGFR (native sequence) (P00533 25-1210): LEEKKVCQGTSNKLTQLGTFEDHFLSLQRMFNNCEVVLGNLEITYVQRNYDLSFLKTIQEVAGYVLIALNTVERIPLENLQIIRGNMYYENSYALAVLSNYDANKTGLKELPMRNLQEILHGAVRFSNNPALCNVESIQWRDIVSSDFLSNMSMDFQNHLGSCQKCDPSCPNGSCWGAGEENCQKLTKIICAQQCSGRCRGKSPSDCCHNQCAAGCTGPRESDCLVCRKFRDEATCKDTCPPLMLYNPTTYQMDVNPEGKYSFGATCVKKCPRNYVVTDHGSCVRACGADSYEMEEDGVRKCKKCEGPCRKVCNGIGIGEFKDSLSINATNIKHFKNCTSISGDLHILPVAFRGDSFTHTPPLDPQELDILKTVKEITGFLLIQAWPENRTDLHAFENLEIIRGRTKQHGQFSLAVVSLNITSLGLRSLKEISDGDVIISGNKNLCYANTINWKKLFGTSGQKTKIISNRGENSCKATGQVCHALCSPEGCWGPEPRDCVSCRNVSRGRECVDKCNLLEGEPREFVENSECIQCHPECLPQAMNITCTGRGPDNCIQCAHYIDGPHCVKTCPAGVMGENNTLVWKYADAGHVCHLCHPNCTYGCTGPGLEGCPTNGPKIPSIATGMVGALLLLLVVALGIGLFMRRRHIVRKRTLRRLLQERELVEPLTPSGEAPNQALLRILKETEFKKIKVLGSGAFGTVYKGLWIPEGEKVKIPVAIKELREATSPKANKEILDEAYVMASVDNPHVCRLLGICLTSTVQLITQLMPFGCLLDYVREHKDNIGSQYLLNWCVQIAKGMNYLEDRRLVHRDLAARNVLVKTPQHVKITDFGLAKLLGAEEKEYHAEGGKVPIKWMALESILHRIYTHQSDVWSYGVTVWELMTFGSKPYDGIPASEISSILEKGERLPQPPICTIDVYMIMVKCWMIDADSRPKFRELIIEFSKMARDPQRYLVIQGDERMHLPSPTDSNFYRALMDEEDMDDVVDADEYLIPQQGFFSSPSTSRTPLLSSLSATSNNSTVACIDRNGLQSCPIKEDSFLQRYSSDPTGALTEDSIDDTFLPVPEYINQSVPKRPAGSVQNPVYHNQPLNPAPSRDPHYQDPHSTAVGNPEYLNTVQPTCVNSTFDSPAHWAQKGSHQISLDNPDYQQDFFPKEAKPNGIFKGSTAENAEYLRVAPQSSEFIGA
T1 sequence (P00533 with tags, fused parts or gaps DEL746-750/T790M, form open): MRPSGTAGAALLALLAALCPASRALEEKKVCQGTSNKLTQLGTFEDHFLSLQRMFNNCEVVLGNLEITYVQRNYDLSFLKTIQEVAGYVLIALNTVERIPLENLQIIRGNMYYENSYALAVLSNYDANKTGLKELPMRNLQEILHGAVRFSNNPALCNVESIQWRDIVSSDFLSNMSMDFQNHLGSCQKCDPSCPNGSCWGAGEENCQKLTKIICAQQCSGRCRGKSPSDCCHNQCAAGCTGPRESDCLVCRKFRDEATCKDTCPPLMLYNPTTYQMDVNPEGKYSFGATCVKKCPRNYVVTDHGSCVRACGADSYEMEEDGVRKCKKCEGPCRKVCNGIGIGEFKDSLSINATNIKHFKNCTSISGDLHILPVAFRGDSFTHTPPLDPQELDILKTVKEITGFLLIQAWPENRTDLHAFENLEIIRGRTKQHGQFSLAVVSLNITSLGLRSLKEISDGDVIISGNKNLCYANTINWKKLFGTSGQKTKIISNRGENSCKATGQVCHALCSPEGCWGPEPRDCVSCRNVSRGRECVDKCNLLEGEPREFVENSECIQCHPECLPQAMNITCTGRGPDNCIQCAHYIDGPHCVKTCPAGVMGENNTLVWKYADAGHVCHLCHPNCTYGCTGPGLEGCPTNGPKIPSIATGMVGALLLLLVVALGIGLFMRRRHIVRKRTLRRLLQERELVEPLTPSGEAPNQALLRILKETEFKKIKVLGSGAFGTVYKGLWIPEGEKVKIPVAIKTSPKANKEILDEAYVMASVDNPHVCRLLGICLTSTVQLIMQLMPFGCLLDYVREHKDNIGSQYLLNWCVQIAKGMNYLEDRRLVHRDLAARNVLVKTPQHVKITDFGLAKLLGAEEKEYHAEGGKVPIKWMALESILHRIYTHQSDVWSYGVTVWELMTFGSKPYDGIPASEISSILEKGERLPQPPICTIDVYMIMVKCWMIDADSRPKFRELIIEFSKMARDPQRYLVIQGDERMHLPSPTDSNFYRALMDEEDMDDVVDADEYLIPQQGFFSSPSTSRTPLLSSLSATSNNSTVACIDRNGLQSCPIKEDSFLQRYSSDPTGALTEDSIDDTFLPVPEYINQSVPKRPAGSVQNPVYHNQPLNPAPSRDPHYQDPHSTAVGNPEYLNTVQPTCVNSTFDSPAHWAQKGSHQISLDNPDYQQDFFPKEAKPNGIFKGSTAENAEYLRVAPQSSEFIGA
Sequence of EGFR L858R/T790M (P00533 25-1210 T790M/L858R): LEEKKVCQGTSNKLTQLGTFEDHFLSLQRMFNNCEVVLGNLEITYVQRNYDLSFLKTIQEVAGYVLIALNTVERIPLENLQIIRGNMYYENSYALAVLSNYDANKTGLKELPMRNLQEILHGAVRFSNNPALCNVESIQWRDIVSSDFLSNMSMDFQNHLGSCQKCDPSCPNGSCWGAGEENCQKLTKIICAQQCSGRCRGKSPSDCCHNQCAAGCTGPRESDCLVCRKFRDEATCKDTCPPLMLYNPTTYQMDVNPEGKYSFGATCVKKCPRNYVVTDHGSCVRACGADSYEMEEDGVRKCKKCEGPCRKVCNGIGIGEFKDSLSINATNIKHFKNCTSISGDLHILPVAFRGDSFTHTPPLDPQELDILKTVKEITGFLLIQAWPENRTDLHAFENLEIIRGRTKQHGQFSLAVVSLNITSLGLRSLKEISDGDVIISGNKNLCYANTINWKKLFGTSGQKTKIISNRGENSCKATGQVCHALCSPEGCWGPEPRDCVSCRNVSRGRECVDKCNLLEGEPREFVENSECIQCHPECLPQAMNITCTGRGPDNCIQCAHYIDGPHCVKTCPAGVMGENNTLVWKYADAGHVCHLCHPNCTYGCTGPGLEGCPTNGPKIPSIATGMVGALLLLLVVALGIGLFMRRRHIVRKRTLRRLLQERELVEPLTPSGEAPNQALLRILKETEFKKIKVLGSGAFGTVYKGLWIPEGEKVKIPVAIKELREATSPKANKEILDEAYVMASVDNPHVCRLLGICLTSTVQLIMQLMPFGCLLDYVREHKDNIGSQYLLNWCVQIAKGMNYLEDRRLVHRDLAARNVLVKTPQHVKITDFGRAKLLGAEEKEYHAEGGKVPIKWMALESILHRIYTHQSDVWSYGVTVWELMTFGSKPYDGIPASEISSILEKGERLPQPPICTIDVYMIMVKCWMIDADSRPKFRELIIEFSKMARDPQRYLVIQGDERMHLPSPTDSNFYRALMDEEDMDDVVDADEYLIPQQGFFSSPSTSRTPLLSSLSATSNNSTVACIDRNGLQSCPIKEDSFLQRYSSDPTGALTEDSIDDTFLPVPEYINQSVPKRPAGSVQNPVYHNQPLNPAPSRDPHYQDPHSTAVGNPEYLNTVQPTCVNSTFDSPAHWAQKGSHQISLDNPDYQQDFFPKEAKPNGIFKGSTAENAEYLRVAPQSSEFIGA
T2 sequence (P00533 whole entry T790M/L858R): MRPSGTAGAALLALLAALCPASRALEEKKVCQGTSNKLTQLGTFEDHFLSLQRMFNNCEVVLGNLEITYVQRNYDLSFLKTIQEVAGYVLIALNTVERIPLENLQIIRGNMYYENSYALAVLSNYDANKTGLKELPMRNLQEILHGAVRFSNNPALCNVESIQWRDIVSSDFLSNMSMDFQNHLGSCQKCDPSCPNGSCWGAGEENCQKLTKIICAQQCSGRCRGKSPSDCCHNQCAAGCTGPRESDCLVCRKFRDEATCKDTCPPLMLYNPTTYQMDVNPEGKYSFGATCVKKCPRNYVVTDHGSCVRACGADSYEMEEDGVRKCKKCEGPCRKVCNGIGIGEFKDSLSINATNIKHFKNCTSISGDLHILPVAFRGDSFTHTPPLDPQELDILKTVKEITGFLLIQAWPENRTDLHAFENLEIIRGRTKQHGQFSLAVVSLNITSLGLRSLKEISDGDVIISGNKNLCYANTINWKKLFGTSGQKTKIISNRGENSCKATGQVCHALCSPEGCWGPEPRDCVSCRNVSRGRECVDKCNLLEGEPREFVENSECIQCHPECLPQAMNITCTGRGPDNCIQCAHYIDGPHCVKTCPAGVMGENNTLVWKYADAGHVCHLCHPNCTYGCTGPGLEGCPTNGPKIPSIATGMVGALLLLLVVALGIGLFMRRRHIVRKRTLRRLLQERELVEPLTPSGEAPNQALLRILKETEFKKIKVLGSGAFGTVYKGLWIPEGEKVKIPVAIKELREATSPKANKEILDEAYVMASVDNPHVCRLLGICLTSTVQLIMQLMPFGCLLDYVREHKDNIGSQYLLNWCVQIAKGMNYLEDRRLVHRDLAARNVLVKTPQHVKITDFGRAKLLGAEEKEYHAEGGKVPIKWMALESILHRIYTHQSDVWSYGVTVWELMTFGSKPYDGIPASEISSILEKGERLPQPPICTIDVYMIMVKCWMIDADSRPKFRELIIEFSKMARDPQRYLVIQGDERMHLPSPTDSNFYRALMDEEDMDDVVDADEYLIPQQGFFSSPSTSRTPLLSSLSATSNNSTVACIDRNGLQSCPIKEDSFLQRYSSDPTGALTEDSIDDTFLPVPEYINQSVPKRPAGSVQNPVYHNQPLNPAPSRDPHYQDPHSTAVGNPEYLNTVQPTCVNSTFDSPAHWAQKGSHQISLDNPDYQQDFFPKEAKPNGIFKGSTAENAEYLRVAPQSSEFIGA

The pIC50 is the negative decadic logarithm of the IC50, by convention in mol/L. Consider `COc1ccc(NC(=O)/C=C/C(=O)NCCN(C)C)cc1Nc1ncc(Cl)c(Nc2ccccc2P(C)(C)=O)n1` [Example 58, N1-(3-((5-chloro-4-((2-(dimethylphosphoryl)phenyl)amino)pyrimidin-2-yl)amino)-4-methoxyphenyl)-N4-(2-(dimethylamino)ethyl)fumaramide], for which the negative-log IC50 (pIC50) was not above 6.60 in assay [1] (BAF3 PARENTAL cells (control)), more than 7.30 in assay [4] (setting [7]), more than 7.30 in assay [5] (human EGFR native sequence) and more than 7.30 in assay [6] (EGFR L858R). In addition, the GI50 in assay [2] and in assay [3] was not below 250 nM throughout.

Regarding `COc1cc(F)c(NC(=O)CCl)cc1Nc1ncc(Cl)c(Nc2ccccc2P(C)(C)=O)n1` [Example 149, 2-chloro-N-(5-((5-chloro-4-((2-(dimethylphosphoryl)phenyl)amino)pyrimidin-2-yl)amino)-2-fluoro-4-methoxyphenyl)acetamide], the pIC50 in assay [1] (BAF3 parental cells) was not above 6.60; in assay [4] (setting [8]) it was more than 7.30; in assay [5] (setting [8]), more than 7.30; in assay [6] (setting [8]) it was more than 7.30. The GI50 in assay [2] and in assay [3] was less than 50 nM each time.

As to `C=CC(=O)Nc1cc(Nc2ncc(Cl)c(Nc3ccccc3P(C)(C)=O)n2)c(OC)cc1OC(COCC)CN(C)C` (stereo not drawn) [Example 142, N-(5-((5-chloro-4-((2-(dimethylphosphoryl)phenyl)amino)pyrimidin-2-yl)amino)-2-((1-(dimethylamino)-3-ethoxypropan-2-yl)oxy)-4-methoxyphenyl)acrylamide], the pIC50 is not above 6.60 in assay [1] (BAF3 parental cells), more than 7.30 in assay [4] (setting [8]), more than 7.30 in assay [5] (setting [8]) and more than 7.30 in assay [6] (setting [8]). For the same molecule, the GI50 in assay [2] and in assay [3] was less than 50 nM in each case.

Regarding `COc1cc(N2CCCC2)c(NC(=O)C#CCCN2CCN(C)CC2)cc1Nc1ncc(Cl)c(Nc2ccccc2P(C)(C)=O)n1` [Example 119, N-(5-((5-chloro-4-((2-(dimethylphosphoryl)phenyl)amino)pyrimidin-2-yl)amino)-4-methoxy-2-(pyrrolidin-1-yl)phenyl)-5-(4-methylpiperazin-1-yl)pent-2-ynamide], the negative-log IC50 (pIC50) was not above 6.60 in assay [1] (BAF3 parental cells), more than 7.30 in assay [4] (setting [8]), more than 7.30 in assay [5] (setting [8]) and more than 7.30 in assay [6] (setting [8]). For the same molecule, the GI50 in assay [2] and in assay [3] was 101 to 250 nM throughout.

Consider `C=C(CN1CCC(O)C1)C(=O)Nc1ccc(OC)c(Nc2ncc(Cl)c(Nc3ccccc3P(C)(C)=O)n2)c1` (stereo not drawn) [Example 53, N-(3-((5-chloro-4-((2-(dimethylphosphoryl)phenyl)amino)pyrimidin-2-yl)amino)-4-methoxyphenyl)-2-((3-hydroxypyrrolidin-1-yl)methyl)acrylamide], for which the pIC50 is not above 6.60 in assay [1] (BAF3 PARENTAL cells (control)), more than 7.30 in assay [4] (setting [7]), more than 7.30 in assay [5] (human EGFR native sequence) and more than 7.30 in assay [6] (EGFR L858R). The GI50 in assay [2] and in assay [3] was less than 50 nM in each case.

In the case of `C=CC(=O)Nc1cc(Nc2ncc(Cl)c(Nc3ccccc3P(C)(C)=O)n2)c(OC)cc1OC(COC)CN1CCC1` (stereo not drawn) [Example 15, N-(2-((1-(azetidin-1-yl)-3-methoxypropan-2-yl)oxy)-5-((5-chloro-4-((2-(dimethylphosphoryl)phenyl)amino)pyrimidin-2-yl)amino)-4-methoxyphenyl)acrylamide], the pIC50 is not above 6.60 in assay [1] (BAF3 PARENTAL cells (control)), more than 7.30 in assay [4] (setting [7]), more than 7.30 in assay [5] (human EGFR native sequence) and more than 7.30 in assay [6] (EGFR L858R). The GI50 in assay [2] and in assay [3] was less than 50 nM throughout.

Consider `COc1ccc(NC(=O)/C=C/C2(N)CC2)cc1Nc1ncc(Cl)c(Nc2ccccc2P(C)(C)=O)n1` [Example 94, (E)-3-(1-aminocyclopropyl)-N-(3-((5-chloro-4-((2-(dimethylphosphoryl)phenyl)amino)pyrimidin-2-yl)amino)-4-methoxyphenyl)acrylamide], for which the pIC50 in assay [1] (BAF3 PARENTAL cells (control)) is not above 6.60; in assay [4] (setting [7]), more than 7.30; in assay [5] (human EGFR native sequence), 6.60 to 7.00; in assay [6] (EGFR L858R), more than 7.30. Also, the GI50 in assay [2] and in assay [3] was not below 250 nM each time.

Take `C=CC(=O)Nc1cc(Nc2ncc(Cl)c(Nc3ccccc3P(C)(C)=O)n2)c(OC)cc1N1CCC(N2CCOCC2)CC1` [Example 70, N-(5-((5-chloro-4-((2-(dimethylphosphoryl)phenyl)amino)pyrimidin-2-yl)amino)-4-methoxy-2-(4-morpholinopiperidin-1-yl)phenyl)acrylamide]: the pIC50 in assay [1] (BAF3 PARENTAL cells (control)) was not above 6.60; in assay [4] (setting [7]) it was more than 7.30; in assay [5] (human EGFR native sequence) it was more than 7.30; in assay [6] (EGFR L858R), more than 7.30. Besides, the GI50 in assay [2] and in assay [3] was less than 50 nM throughout.

As for `C=CC(=O)Nc1cc(Nc2ncc(Cl)c(Nc3ccccc3P(C)(C)=O)n2)c(OC)cc1O[C@@H](COC)CN(C)C` [Example 129, (R)-N-(5-((5-chloro-4-((2-(dimethylphosphoryl)phenyl)amino)pyrimidin-2-yl)amino)-2-((1-(dimethylamino)-3-methoxypropan-2-yl)oxy)-4-methoxyphenyl)acrylamide], the pIC50 in assay [1] (BAF3 parental cells) was not above 6.60; in assay [4] (setting [8]), more than 7.30; in assay [5] (setting [8]), more than 7.30; in assay [6] (setting [8]), more than 7.30. Moreover, the GI50 in assay [2] and in assay [3] was less than 50 nM in each case.

As for `C=C(F)C(=O)Nc1ccc(OC)c(Nc2ncc(Cl)c(Nc3ccccc3P(C)(C)=O)n2)c1` [Example 77, N-(3-((5-chloro-4-((2-(dimethylphosphoryl)phenyl)amino)pyrimidin-2-yl)amino)-4-methoxyphenyl)-2-fluoroacrylamide], the pIC50 in assay [1] (BAF3 PARENTAL cells (control)) was not above 6.60; in assay [4] (setting [7]), 7.00 to 7.30; in assay [5] (human EGFR native sequence), not above 6.60; in assay [6] (EGFR L858R), more than 7.30. The GI50 was less than 50 nM in assay [2] and 50 to 100 nM in assay [3].

In the case of `COc1cc(P(C)(C)=O)ccc1Nc1ncc(Cl)c(Oc2cccc(NC(=O)C#CCN(C)C)c2)n1` [Example 83, N-(3-((5-chloro-2-((4-(dimethylphosphoryl)-2-methoxyphenyl)amino)pyrimidin-4-yl)oxy)phenyl)-4-(dimethylamino)but-2-ynamide], the pIC50 in assay [1] (BAF3 PARENTAL cells (control)) was not above 6.60; in assay [4] (setting [7]), more than 7.30; in assay [5] (human EGFR native sequence), more than 7.30; in assay [6] (EGFR L858R), more than 7.30. For the same molecule, the GI50 in assay [2] is 101 to 250 nM; in assay [3], not below 250 nM.

Consider `COCC#CC(=O)Nc1ccc(OC)c(Nc2ncc(Cl)c(Nc3ccccc3P(C)(C)=O)n2)c1` [Example 97, N-(3-((5-chloro-4-((2-(dimethylphosphoryl)phenyl)amino)pyrimidin-2-yl)amino)-4-methoxyphenyl)-4-methoxybut-2-ynamide], for which the pIC50 in assay [1] (BAF3 PARENTAL cells (control)) is not above 6.60; in assay [4] (setting [7]), more than 7.30; in assay [5] (human EGFR native sequence) it was more than 7.30; in assay [6] (EGFR L858R) it was more than 7.30. For the same molecule, the GI50 in assay [2] and in assay [3] was less than 50 nM in each case.

In the case of `C=CC(=O)Nc1ccc(OC)c(Nc2ncc(Cl)c(Nc3ccc(OCCN(C)C)cc3P(C)(C)=O)n2)c1` [Example 125, N-(3-((5-chloro-4-((4-(2-(dimethylamino)ethoxy)-2-(dimethylphosphoryl)phenyl)amino)pyrimidin-2-yl)amino)-4-methoxyphenyl)acrylamide], the pIC50 in assay [1] (BAF3 parental cells) was not above 6.60; in assay [4] (setting [8]), more than 7.30; in assay [5] (setting [8]), more than 7.30; in assay [6] (setting [8]) it was more than 7.30. Also, the GI50 in assay [2] and in assay [3] was less than 50 nM each time.

`COCC#CC(=O)Nc1cc(Nc2ncc(Cl)c(Nc3ccccc3P(C)(C)=O)n2)c(OC)cc1N1CCC(N(C)C)C1` (stereo not drawn) [Example 111, N-(5-((5-chloro-4-((2-(dimethylphosphoryl)phenyl)amino)pyrimidin-2-yl)amino)-2-(3-(dimethylamino)pyrrolidin-1-yl)-4-methoxyphenyl)-4-methoxybut-2-ynamide]: the pIC50 in assay [1] (BAF3 parental cells) was not above 6.60; in assay [4] (setting [8]) it was more than 7.30; in assay [5] (setting [8]) it was more than 7.30; in assay [6] (setting [8]) it was more than 7.30. Moreover, the GI50 in assay [2] and in assay [3] was less than 50 nM throughout.
